Reference: patent US11632953B2, “Method for controlling hematophagous or sap-feeding arthropods” (Board of Supervisors of Louisiana State University and …, priority 2016, dated 2023)
“Also recorded” adds a separate entry of the source.

What was measured:
[1] = system: honey bees (Apis mellifera); assay: acute topical toxicity in adult honey bees; format: in vivo; conditions: 48 h, VU041 1 mg/bee (~10 μg/mg), bifenthrin 0.1 μg/bee
Procedure: Frames of late-stage honeybee (A. mellifera) pupae were taken from four colonies at The Ohio State University Honey Bee Lab in Wooster, Ohio, and maintained in a dark humid incubator at 34° C. (Darwin Chambers Co., St. Louis, Mo., model H024) until adult bees emerged. New adults were brushed from frames daily, placed in wooden screen cages (21×14×12 cm), and provided with 1:1 (w/w) sucrose in water.
Acute toxicity experiments in adult bees were performed as follows: Twenty-four hours after emergence, adult honey bees in cages were anaesthetized with carbon dioxide, divided into groups of approximately 20 bees each, and placed in plastic-coated paper cups (177 cm^3; UNIQ Paper Yogurt Cup, Frozen Dessert Supplies, Gilbert, Ariz.) covered with cotton cheesecloth. […] As a positive control, some bees were treated with 3 μl of bifenthrin (0.1 μg/μl). Negative control bees were treated with 3 μl of solvent. Applications were made using a 20 μl micropipette (Fisherbrand Finnpipette F2, Fisher Scientific, Pittsburgh, Pa.) with a disposable plastic tip. […] Toxicity to honey bees was recorded at 48 h, rather than the 24 h used for mosquitoes, to allow for the possibility of delayed toxicity due to the larger body size of the bee. Bees showing no movement 48 h after treatment were scored as dead.

Ae. aegypti [2] = assay: mosquito fecundity, eggs laid; format: in vivo, Aedes aegypti; conditions: 72 h post blood feeding; 3.4 μg/mg mosquito
Procedure: The mosquitoes were returned to rearing conditions for 24 h, after which they were transferred to individual egg-laying glass tubes 21 mm×70 mm (Fisher Scientific, Pittsburgh, Pa.) with a piece of coffee filter ([…] USA, Clearwater, Fla.) cut to fit the bottom of the tube. The filter was wetted with 150 μl of dH2O, and the open end of the tube was plugged with a cotton ball. The mosquitoes in their individual egg laying tubes were returned to rearing conditions for an additional 48 h, and the number of eggs laid was counted. Any mosquitoes that died during the 72 h period after blood feeding were excluded from the analysis.

[3] = system: isolated tick salivary gland; assay: fluid secretion (salivation) in the isolated tick salivary gland, modified Ramsay assay; parameters: species or system Amblyomma americanum; conditions: isolated tick salivary gland
AeKir1 = AeKir1 (Aedes aegypti, UniProt L0EQS9); assay: thallium (Tl+) flux assay; format: cell-based; conditions: means (n = 3); read-out: IC50 μM (95% Cl)
Chain of AeKir1 (L0EQS9 1-486): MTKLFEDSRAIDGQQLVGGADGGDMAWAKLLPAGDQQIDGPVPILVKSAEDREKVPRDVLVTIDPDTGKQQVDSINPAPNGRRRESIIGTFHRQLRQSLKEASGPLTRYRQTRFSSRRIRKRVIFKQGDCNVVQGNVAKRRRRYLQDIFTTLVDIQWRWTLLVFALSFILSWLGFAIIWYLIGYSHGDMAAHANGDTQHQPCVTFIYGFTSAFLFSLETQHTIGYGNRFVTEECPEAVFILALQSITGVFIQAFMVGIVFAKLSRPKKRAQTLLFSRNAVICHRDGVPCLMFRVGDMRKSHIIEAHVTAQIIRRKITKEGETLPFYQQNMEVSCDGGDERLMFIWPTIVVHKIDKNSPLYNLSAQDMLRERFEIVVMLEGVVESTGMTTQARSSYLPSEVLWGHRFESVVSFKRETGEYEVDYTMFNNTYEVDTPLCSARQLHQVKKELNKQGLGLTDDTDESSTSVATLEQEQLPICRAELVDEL

Kir1.1 = Kir1.1 (Homo sapiens (Human), UniProt P48048); assay: thallium (Tl+) flux assay; format: cell-based, mammalian
Chain of Kir1.1 (P48048 whole entry): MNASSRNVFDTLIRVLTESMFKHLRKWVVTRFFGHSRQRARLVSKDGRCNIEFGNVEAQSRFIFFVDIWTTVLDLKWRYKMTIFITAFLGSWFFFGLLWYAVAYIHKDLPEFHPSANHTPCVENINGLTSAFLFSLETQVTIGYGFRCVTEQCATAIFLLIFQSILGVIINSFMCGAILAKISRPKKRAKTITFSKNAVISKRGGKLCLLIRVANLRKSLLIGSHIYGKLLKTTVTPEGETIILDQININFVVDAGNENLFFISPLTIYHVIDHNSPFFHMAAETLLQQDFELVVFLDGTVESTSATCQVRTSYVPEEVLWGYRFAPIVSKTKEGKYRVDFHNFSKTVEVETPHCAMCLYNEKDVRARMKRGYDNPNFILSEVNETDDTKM

Ae. aegypti [4] = assay: in vivo diuresis assay; parameters: species or system Aedes aegypti; conditions: topical, 1.7 μg/mg mosquito
Procedure: The K^+-PBS contained the following (in mM): 92.2 NaCl, 47.5 KCl, 10 Na2HPO4, and 2 KH2PO4 (pH 7.5). Each treatment group of 5 mosquitoes was transferred into a separate graduated, packed-cell volume tube (MidSci, St. Louis, Mo.) and held for 1 h at 28° C. The volume excreted by the mosquitoes was measured visually via the graduated column at the bottom of the tube. At least 8 replicates (5 mosquitoes per replicate) were performed for each treatment.

An. gambiae = assay: mosquito fecundity, eggs laid; format: in vivo, Anopheles gambiae; conditions: 72 h post blood feeding; VU041 ~1 μg/mg, VU937 ~10 μg/mg
Procedure: Briefly, adult female mosquitoes were given access to an anesthetized mouse for 60 min. […] After treatment, individual female mosquitoes were transferred to Drosophila vials (Fisher Scientific, Pittsburgh, OA) containing 2 mL of water. The total number of eggs was counted 72 hours after each mosquito was transferred into a vial. Any mosquitoes that died during this 72-hour period were excluded from the analysis. All assays were performed in an environmental chamber that was maintained at 27° C. and 75% relative humidity; mosquitoes were given access to 10% sucrose solution ad libitum. At least 25 female mosquitoes were used per replicate for each treatment group; each treatment was repeated on three separate broods, giving a total number of individuals from 75-113 for each group.

## O=C(Cn1nc(C(F)(F)F)c2c1CCCC2)N1CCCc2ccccc21 [VU041, 1-(3,4-dihydroquinolin-1(2H)-yl)-2-(3-(trifluoromethyl)-4,5,6,7-tetrahydro-1H-indazol-1-yl)ethan-1-one]
[1]
  mortality of adult honey bees: did not cause significant mortality; also recorded: not toxic
Ae. aegypti [2]
  median number of eggs laid per mosquito: significantly lower median number of eggs per mosquito
[3]
  reduction of salivary output / saliva secretion compared to control: approximately 60%
AeKir1
  IC50: 1.7 µM
Kir1.1; concentration of 30 μM
  inhibition at 30 µM: < 10%
Kir1.1; means (n = 3), read-out: IC50 μM (95% Cl)
  IC50: > 30 µM
Ae. aegypti [4]
  lowering of diuretic capacity compared to controls: ~51%
An. gambiae
  median number of eggs laid per mosquito: significantly lower median number of eggs per mosquito
